Test results: ChEMBL document CHEMBL1201862, “PubChem BioAssay data set” (2004)
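In this assay, cells in 96-well plates receive the compound at five concentrations for 48 hours. Endpoints are linearly interpolated between the surrounding concentrations. GI50: concentration for 50% inhibition of growth.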 Calls of active or inactive are those of the source. Rule as the data show it: active = GI50 up to about 1.1 µM and inactive = higher.

Key:
Assay in all cases: NCI-60 cell line screen, 48 h
[1] = system: 786-0
[2] = system: ACHN
[3] = system: CAKI-1
[4] = system: CCRF-CEM
[5] = system: HCT-116
[6] = system: HT-29
[7] = system: M14
[8] = system: MOLT-4
[9] = system: NCI-H226
[10] = system: NCI-H460
[11] = system: RXF 393
[12] = system: SF-295
[13] = system: SK-MEL-2
[14] = system: SK-MEL-5
[15] = system: SNB-75
[16] = system: SW-620
[17] = system: UO-31
[18] = system: SR

Measured: GI50

CN(C)CC1(C)CC/C(=C\c2ccccc2)C1=O (stereo not given)
inactive: [1] > 100 µM | [2] > 100 µM | [3] > 100 µM | [4] 43.1 µM | [5] > 100 µM | [6] > 100 µM | [7] > 100 µM | [8] > 100 µM | [9] > 100 µM | [10] > 100 µM | [11] > 100 µM | [12] > 100 µM | [13] > 100 µM | [14] > 100 µM | [15] > 100 µM | [16] 63.1 µM | [17] > 100 µM

COC(=O)N/N=C/C(=C/Nc1ccccc1)[N+](=O)[O-]
inactive: [1] > 100 µM | [2] > 100 µM | [4] > 100 µM | [5] > 100 µM | [6] > 100 µM | [7] > 100 µM | [8] > 100 µM | [10] > 100 µM | [11] > 100 µM | [14] > 100 µM | [18] > 100 µM | [16] > 100 µM | [17] > 100 µM

O=C1CCCC[C@H]1[C@H]1CCC[C@@H]([C@H]2CCCCC2=O)C1=O
inactive: [1] > 100 µM | [2] > 100 µM | [3] > 100 µM | [4] > 100 µM | [5] > 100 µM | [6] > 100 µM | [7] > 100 µM | [8] > 100 µM | [9] > 100 µM | [10] > 100 µM | [11] > 100 µM | [12] > 100 µM | [13] > 100 µM | [14] > 100 µM | [15] > 100 µM | [18] > 100 µM | [16] > 100 µM | [17] > 100 µM

C/C(=N\NC(=O)CC(=O)Nc1ccc(Cl)cc1)c1cc2ccccc2oc1=O
inactive: [1] > 100 µM | [2] > 100 µM | [4] > 100 µM | [5] > 100 µM | [6] > 100 µM | [7] > 100 µM | [8] > 100 µM | [9] > 100 µM | [10] > 100 µM | [11] > 100 µM | [12] > 100 µM | [14] > 100 µM | [15] 66.1 µM | [16] > 100 µM | [17] > 100 µM

CCCN(CCCCC(NC(C)=O)C(=O)NCc1ccccc1)C(=O)N(C)N=O (stereo not given)
inactive: [1] > 100 µM | [2] > 100 µM | [3] > 100 µM | [4] > 100 µM | [5] > 100 µM | [6] > 100 µM | [7] > 100 µM | [8] 92 µM | [9] > 100 µM | [10] > 100 µM | [11] > 100 µM | [12] > 100 µM | [13] > 100 µM | [14] > 100 µM | [15] 38.1 µM | [16] > 100 µM | [17] > 100 µM

C/C(=N\NC(N)=S)C(CN(CC(C)C)CC(C)C)C(=O)Nc1ccc(C)cc1C (stereo not given)
inactive: [1] > 100 µM | [2] > 100 µM | [3] > 100 µM | [4] > 100 µM | [5] > 100 µM | [6] > 100 µM | [7] > 100 µM | [8] > 100 µM | [9] > 100 µM | [10] > 100 µM | [11] > 100 µM | [12] > 100 µM | [13] > 100 µM | [14] > 100 µM | [15] 90.6 µM | [18] > 100 µM | [16] > 100 µM | [17] > 100 µM

Cc1ccccc1C1=[N+]([O-])c2ccc(Cl)cc2C1=O
inactive: [1] 18.9 µM | [2] 12.9 µM | [4] 3.82 µM | [5] 7.46 µM | [6] 5.01 µM | [7] 16.3 µM | [8] 3.6 µM | [9] 14.4 µM | [10] 15.4 µM | [11] 20 µM | [12] 14.6 µM | [13] 14.1 µM | [14] 13.8 µM | [15] 19.8 µM | [18] 11.8 µM | [16] 25.4 µM | [17] 14.3 µM

CC(=O)NC1C(OCc2ccccc2)OC(COC(=O)CCCCCCCCCCNc2ccc([N+](=O)[O-])c3[nH]c4ccccc4c(=O)c23)C(O)C1OC(C)C(=O)NC(C)C(=O)NC(CCC(N)=O)C(=O)OCc1ccccc1 (stereo not given)
inactive: [1] > 100 µM | [2] > 100 µM | [3] > 100 µM | [5] > 100 µM | [6] > 100 µM | [7] > 100 µM | [8] > 100 µM | [9] > 100 µM | [10] > 100 µM | [12] > 100 µM | [13] > 100 µM | [14] > 100 µM | [15] > 100 µM | [18] > 100 µM | [16] > 100 µM | [17] > 100 µM

O=S(=O)(c1ccccc1)N1CCC1c1ccccc1 (stereo not given)
inactive: [1] > 100 µM | [2] > 100 µM | [4] > 100 µM | [5] 87.5 µM | [6] > 100 µM | [7] > 100 µM | [8] 33.7 µM | [9] > 100 µM | [10] > 100 µM | [11] > 100 µM | [12] > 100 µM | [13] > 100 µM | [14] > 100 µM | [15] 56.4 µM | [16] > 100 µM | [17] 29.6 µM

Sc1ccccc1S
inactive: [1] > 100 µM | [2] > 100 µM | [3] > 100 µM | [6] > 100 µM | [7] > 100 µM | [10] > 100 µM | [11] > 100 µM | [12] > 100 µM | [16] > 100 µM | [17] > 10 µM

Cc1ccc(S(=O)(=O)CNC(=S)CCCC(=S)NCS(=O)(=O)c2ccc(C)cc2)cc1
inactive: [1] > 100 µM | [3] > 100 µM | [4] 21.3 µM | [5] 49 µM | [6] > 100 µM | [7] > 100 µM | [8] 22.2 µM | [9] > 100 µM | [10] > 100 µM | [11] 79.4 µM | [12] > 100 µM | [14] 79.1 µM | [15] > 100 µM | [18] 32.7 µM | [16] 53.5 µM | [17] 35.2 µM

CCCCCCCC(=O)OCC1OC(n2cc(F)c(=O)[nH]c2=O)C(N)C(O)C1O (stereo not given)
inactive: [1] > 100 µM | [2] > 100 µM | [3] > 100 µM | [4] > 100 µM | [5] > 100 µM | [6] > 100 µM | [7] > 100 µM | [8] > 100 µM | [9] > 100 µM | [10] > 100 µM | [11] > 100 µM | [12] > 100 µM | [13] > 100 µM | [14] > 100 µM | [15] > 100 µM | [18] > 100 µM | [16] > 100 µM | [17] > 100 µM

COc1cccc2c1C(=O)c1c(O)c3c(c(O)c1C2=O)CC(O)(C(C)=O)CC3OC1CC([N+](C)(C)C)C(O)C(C)O1 (stereo not given)
inactive: [1] > 100 µM | [2] > 100 µM | [3] > 100 µM | [4] 48.1 µM | [5] 66.8 µM | [6] 94.2 µM | [7] > 100 µM | [8] 12.4 µM | [9] 80.7 µM | [10] 36.4 µM | [11] > 100 µM | [12] > 100 µM | [13] > 100 µM | [14] > 100 µM | [15] 52.2 µM | [18] 5.24 µM | [16] 56.1 µM | [17] > 100 µM

N#C[C-](C#N)[n+]1ccc(Cl)cc1
inactive: [1] 18.7 µM | [3] 3.53 µM | [4] 9.27 µM | [5] 14.5 µM | [6] 18 µM | [7] 17 µM | [8] 12.7 µM | [9] 25.3 µM | [10] 22.5 µM | [11] 16.7 µM | [12] 19 µM | [14] 16.1 µM | [15] 17.5 µM | [18] 14.4 µM | [16] 10.9 µM | [17] 22.8 µM

COS(=O)CCOC(=O)c1ccccc1SSc1ccccc1C(=O)OCCS(=O)OC (stereo not given)
inactive: [1] 20.3 µM | [2] 43.7 µM | [3] 27.2 µM | [4] 3.79 µM | [6] 14.1 µM | [7] 20 µM | [8] 3.44 µM | [10] > 100 µM | [11] 14.2 µM | [12] 33.2 µM | [13] 37.7 µM | [14] 67 µM | [15] 6.31 µM | [16] 31 µM | [17] 15.5 µM

Nc1nc(CCc2n[nH]c(N)n2)n[nH]1
inactive: [1] > 100 µM | [2] > 100 µM | [3] > 100 µM | [4] > 100 µM | [5] > 100 µM | [6] > 100 µM | [7] > 100 µM | [8] > 100 µM | [9] > 100 µM | [10] > 100 µM | [11] > 100 µM | [12] > 100 µM | [13] > 100 µM | [14] > 100 µM | [15] > 100 µM | [16] > 100 µM | [17] > 100 µM

Cc1c2cc[n+](C)cc2c(C)c2c1[nH]c1ccc(OC(C)(C)C)cc12
inactive: [1] > 100 µM | [2] > 100 µM | [3] > 100 µM | [4] > 100 µM | [5] > 100 µM | [6] > 100 µM | [7] > 100 µM | [8] > 100 µM | [9] > 100 µM | [10] > 100 µM | [11] > 100 µM | [12] > 100 µM | [13] > 100 µM | [14] > 100 µM | [15] > 100 µM | [18] > 100 µM | [16] > 100 µM | [17] > 100 µM
